39 compounds from the supplement of paper PMC10949913 can be followed below.

Test in all cases: area under concentration-response curve (viability) (AUC (a.u.)); higher = less active
Details in all cases: 48 h

For one test, the system named is NCI-H295R. The method in brief:
(§1)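 Library compounds were dispensed at 11 concentrations (23 nL each) onto three adrenocortical carcinoma cell lines in 1,536-well plates. Luminescence was recorded after 48 h using CellTiter-Glo, and signals were normalised per plate to vehicle and empty-well controls. Fitted concentration-response curves of inhibitory or non-responding classes only supplied the AC50 and area under the curve.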

For a further test, the system named is CU-ACC2. The method in brief:
as §1

The next test concerns CU-ACC1. The method in brief: as §1

Turning to `CO[C@H]1/C=C/O[C@@]2(C)Oc3c(C)c(O)c4c(O)c(c5c(nc6cc(C)ccn65)c4c3C2=O)NC(=O)/C(C)=C\C=C\[C@H](C)[C@H](O)[C@@H](C)[C@@H](O)[C@@H](C)[C@H](OC(C)=O)[C@@H]1C`, the “area under concentration-response curve” value in the test on NCI-H295R was 529; in the test on CU-ACC2, 557; in the test with CU-ACC1, 475.
Turning to `OC(=O)CNC(=O)\C1=C(/O)C2=CC=CC=C2N(CC3=CC=CC=C3)C1=O`, the “area under concentration-response curve” value with NCI-H295R turned out to be 529; with CU-ACC2, 539; in the test on CU-ACC1, 441.
For `Clc1cccc(C(c2ccc3nc[nH]c3c2)n2ccnc2)c1` (configuration not stated), in that order: 491, 633 and 534.
On to `CC1(C)O[C@@H]2C[C@H]3[C@@H]4C[C@H](F)\C5=C\C(=O)\C=C/[C@]5(C)[C@H]4[C@@H](O)C[C@]3(C)[C@@]2(O1)C(=O)CO`, for which the “area under concentration-response curve” value with NCI-H295R was determined as 588; in the test on CU-ACC2, 622; in the test with CU-ACC1 it was 515.
`COc1cc2ncn(-c3cc(OCc4ccccc4C(F)(F)F)c(C(N)=O)s3)c2cc1OC`: the “area under concentration-response curve” value amounted to 506 with NCI-H295R, 606 in the test with CU-ACC2 and 515 with CU-ACC1.
In the case of `ClC1=C(N\C2=N\CCN2)C3=NSN=C3C=C1`, the “area under concentration-response curve” value turned out to be 541 with NCI-H295R, 609 in the test on CU-ACC2 and 412 in the test on CU-ACC1.
Consider `COC1=CC(=CC=C1)C2=CC=C(NC(=O)/C3=C(/CCC3)C(O)=O)C(=C2)F`, for which the figures for the “area under concentration-response curve” value with NCI-H295R, in the test with CU-ACC2 and in the test with CU-ACC1 were 491, 509 and 450, respectively.
As for `COC(=O)N[C@@H](C)CNc1nccc(-c2cn(C(C)C)nc2-c2cc(Cl)cc(N[S+](C)(=O)[O-])c2F)n1`, the “area under concentration-response curve” value turned out to be 539 in the test on NCI-H295R, 566 in the test on CU-ACC2 and 497 in the test on CU-ACC1.
On the same counts, the results for `CCC(C)CNCC(=O)N1CCc2sccc2C1c1cccc(C)n1` (configuration not stated) are 571, 622 and 531.
On the same counts, the results for `Nc1cc(c(cc1S(=O)(N)=O)S(N)(=O)=O)C(/Cl)=C(/Cl)Cl` are 531, 590 and 505.
Turning to `CCCC(CCC)C(=O)[O-]`, the entries for the “area under concentration-response curve” value with NCI-H295R, in the test on CU-ACC2 and in the test on CU-ACC1 were 442, 482 and 445, respectively.
As for `COc1ccc(C(=O)N2CCN(C(=O)/C=C/c3ccc(Br)cc3)CC2)cc1`, the “area under concentration-response curve” value worked out at 536 in the test on NCI-H295R, 638 with CU-ACC2 and 499 in the test with CU-ACC1.
On the same counts, the results for `CCOC(=O)[C@@H](N)CCC(=O)N[C@@H](CSCc1ccccc1)C(=O)N[C@@H](C(=O)OCC)c1ccccc1` are 602, 635 and 594.
With `C[C@H](NC(=O)Cc1cc(F)cc(F)c1)C(=O)N[C@H](C(=O)OC(C)(C)C)c1ccccc1`, the “area under concentration-response curve” value worked out at 572 in the test on NCI-H295R, 677 in the test on CU-ACC2 and 570 in the test on CU-ACC1.
In the case of `COc1ccc([C@@H]2CC(=O)c3c(O)cc(O[C@@H]4O[C@H](CO[C@@H]5O[C@@H](C)[C@H](O)[C@@H](O)[C@H]5O)[C@@H](O)[C@H](O)[C@H]4O)cc3O2)cc1O`, the “area under concentration-response curve” value in the test on NCI-H295R was 547; with CU-ACC2 it was 593; in the test with CU-ACC1 it was 480.
Take `CCCOc1ccc2[nH]c(NC(=O)OC)nc2c1`: the “area under concentration-response curve” value in the test on NCI-H295R was determined as 480; in the test with CU-ACC2, 568; with CU-ACC1, 499.
As for `OC1=CC2=C(C(=C1)O)C(=O)\C(=C(/O2)C3=CC(=C(O)C=C3)O)O`, the results for the “area under concentration-response curve” value with NCI-H295R, in the test with CU-ACC2 and with CU-ACC1 were 545, 607 and 499, respectively.
For `O=C(O)c1ccccc1C(=O)Nc1ccc(-c2ccccc2)cc1`, in that order: 491, 580 and 514.
As for `CC1(C)NC(=O)N(c2ccc([N+](=O)[O-])c(C(F)(F)F)c2)C1=O`, the “area under concentration-response curve” value amounted to 543 with NCI-H295R, 634 in the test on CU-ACC2 and 511 in the test on CU-ACC1.
For `c1ccc2c(CN3CCNCC3)cccc2c1`, in that order: 580, 647 and 525.
For `COc1ccc(CCN2CCN(CCCc3ccccc3)CC2)cc1OC`, the “area under concentration-response curve” value in the test on NCI-H295R stood at 562; in the test with CU-ACC2, 627; in the test with CU-ACC1, 541.
`NC(=O)c1ccc(-c2nc(-c3ccc4c(c3)OCO4)c(-c3ccccn3)[nH]2)cc1`: the “area under concentration-response curve” value came to 509 in the test on NCI-H295R, 633 with CU-ACC2 and 286 in the test on CU-ACC1.
As to `CSCC[C@H](NC(=O)[C@H](Cc1c[nH]c2ccccc12)NC(=O)CCNC(=O)OC(C)(C)C)C(=O)N[C@@H](CC(=O)O)C(=O)N[C@@H](Cc1ccccc1)C(N)=O`, the “area under concentration-response curve” value in the test with NCI-H295R was 545; with CU-ACC2, 579; in the test with CU-ACC1, 495.
For the compound `CC[C@]12CC[C@H]3[C@@H](CCC/4=C/C(=O)CC[C@H]34)[C@@H]1CC[C@@]2(O)C#C`, the entries for the “area under concentration-response curve” value with NCI-H295R, in the test with CU-ACC2 and with CU-ACC1 were 575, 614 and 519, respectively.
For `O=C1C[C@@H](c2ccc(O)cc2)Oc2cc(O)cc(O)c21`, the “area under concentration-response curve” value in the test with NCI-H295R was determined as 485; in the test on CU-ACC2 it was 484; with CU-ACC1, 345.
On to `O=C(O)CCn1c2c(c3ccccc31)C[C@H](N[S+](=O)([O-])c1ccc(F)cc1)CC2`, for which the “area under concentration-response curve” value in the test with NCI-H295R was determined as 496; in the test on CU-ACC2, 540; in the test on CU-ACC1 it was 445.
On the same counts, the results for `Cc1ccc(C)c(OCCCC(C)(C)C(=O)O)c1` are 572, 661 and 569.
Take `C#CCN[C@@H]1CCc2ccccc21`: the “area under concentration-response curve” value in the test on NCI-H295R came to 590; with CU-ACC2, 642; in the test with CU-ACC1, 565.
As to `C[C@@H]1O[C@@H](O[C@@H]2\C=C/C=C\C=C/C=C\C[C@H](C)OC(=O)/C=C\[C@H]3O[C@@H]3C[C@H](O)C[C@]3(O)C[C@@H](O)[C@@H](C(=O)O)[C@H](C2)O3)[C@H](O)[C@H](N)[C@@H]1O`, the entries for the “area under concentration-response curve” value in the test on NCI-H295R, in the test with CU-ACC2 and in the test with CU-ACC1 were 573, 572 and 395, respectively.
Turning to `O=C1CCC(N2C(=O)c3ccccc3C2=O)C(=O)N1` (configuration not stated), the figures for the “area under concentration-response curve” value in the test with NCI-H295R, in the test with CU-ACC2 and with CU-ACC1 were 538, 602 and 535, respectively.
With `C[C@H]1C[C@@H]2[C@H](CC[C@@]3(C)[C@H]2CC[C@]3(OC(C)=O)C(C)=O)[C@@]\4(C)CCC(=O)\C=C14`, the “area under concentration-response curve” value in the test with NCI-H295R is 557; in the test on CU-ACC2, 618; in the test on CU-ACC1, 554.
Consider `COc1ccc([S+](=O)([O-])NCc2ccc(C(=O)NCCc3ccc(Cl)cn3)cc2)cc1`, for which the “area under concentration-response curve” value amounted to 614 with NCI-H295R, 654 in the test on CU-ACC2 and 565 in the test with CU-ACC1.
Regarding `Cn1ncc2cc(-c3cnc(N)c(Cl)c3N3CCC4(CCNC4=O)CC3)ccc21`, the “area under concentration-response curve” value in the test on NCI-H295R was determined as 536; in the test with CU-ACC2 it was 484; in the test on CU-ACC1 it was 475.
On to `Oc1nc(-c2ccc(C(F)(F)F)cc2)nc2c1CSCC2`, for which the “area under concentration-response curve” value was found to be 483 with NCI-H295R, 509 in the test with CU-ACC2 and 511 with CU-ACC1.
On the same counts, the results for `O=[N+]([O-])c1cncn1CCN1CCOCC1` are 563, 611 and 545.
On the same counts, the results for `NC[C@H]1CC[C@H](C(=O)O)CC1` are 452, 586 and 497.
As to `COCCCc1sc(-c2ccccc2)nc1C(=O)Nc1ccccc1-c1nc2cc(CN3CCCC3)cnc2s1`, the “area under concentration-response curve” value in the test with NCI-H295R came out at 567; in the test on CU-ACC2, 564; in the test on CU-ACC1, 563.
As to `CC[C@@H](Oc1cccc(CN(CCCOc2ccc(OC)cc2)c2nc3ccccc3o2)c1)C(=O)O`, the entries for the “area under concentration-response curve” value in the test with NCI-H295R, in the test with CU-ACC2 and with CU-ACC1 were 519, 571 and 562, respectively.
On the same counts, the results for `CC1COC2=C3N1\C=C(C(O)=O)/C(=O)C3=CC(=C2N4CCN(C)CC4)F` (configuration not stated) are 517, 537 and 474.
